# Entries after “also recorded” stand apart in the source; their conditions may differ.
# Columns and labels:
# CPT1b = assay: O-GlcNAc co-immunoprecipitation from heart: CPT1b; type: in vivo, C57BL/6J mice; settings: Adropin-treated HFpEF mice, relative to levels in chow mice / HFpEF
# Source text: (§1) Animal Care and Use. Male C57BL/6J 8-week-old mice were obtained from the Jackson Laboratory and maintained on chow for 4 weeks to acclimate to their new environment. Animals were housed in the University of Pittsburgh animal facility under standard conditions with ad libitum access to water and food and maintained on a constant 12-hour light/dark cycle. At 12 weeks of age, the mice were exposed to normal chow (Chow; 60% carbohydrate, 26% protein, 14% fat), or a combination of high-fat diet (HFD; 20% carbohydrate, 20% protein, 60% fat) plus No-nitro-L-arginine methyl ester (L-NAME: 0.5 g/L) supplemented in their drinking water after adjusting the pH to 7.4 with 1N NaOH to induce HFpEF [10]. For cohort 1, the mice were subject to the HFpEF diet for 15 weeks. For cohort 2, after 8 weeks of diet, mice were randomly assigned to a control or treatment group receiving daily intraperitoneal injections of either vehicle or recombinant adropin at 450 nmol/kg animal weight prepared in PBS with 0.1% BSA for the remaining 5 weeks of the study. L-NAME supplemented drinking water was changed weekly and adropin was made fresh and sterile filtered before each use.
# Co-Immunoprecipitation. […] Images were obtained using LiCor Odyssey CLx System and protein densitometry was measured using the LiCor Image Studio Lite Ver. […]
# [1] = test system: hearts isolated from chow-fed mice; settings: cited from earlier work
# [2] = test system: hearts from control HFpEF and Adropin treated HFpEF mice; assay: Bulk RNA sequencing of hearts, HFpEF vs HFpEF+Adropin; type: in vivo, C57BL/6J mice; settings: heart bulk RNA-seq
# Source text: as §1
# Transcriptomics. Total RNA was isolated from myocardial LV and hepatic tissue using the RNeasy Plus Mini Kit. Approximately 2 μg RNA was used for bulk RNA sequencing performed by Azenta/GENEWIZ based on company recommendations to identify differential gene expression patterns between the experimental groups.
# GPR19 = settings: previous work from our group; cited from earlier work
# diabetic mice = settings: cited from earlier work
# LCAD = LCAD activity assay in cardiac tissue; type: in vivo, C57BL/6J mice; settings: isolated cardiac tissues; downregulated in HFpEF vs chow
# Source text: as §1
# LCAD Activity Assay/Biochemical Assays/Enzyme activity assay. […] The reaction was initiated with 60 µM acyl-CoA, and the rate of absorbance change was measured/observed at 600 nm over 45 min. […]
# HFpEF mice [3] = assay: Heart, lung and liver mass after four weeks of Adropin in HFpEF mice (Example 1); type: in vivo
# Description: (§2) Administration of Recombinant Adropin. Mice received low-fat chow or HFpEF diet for 10 weeks. For the following 4 weeks, the mice were maintained on respective diets and received daily injections of recombinant Adropin. Body weight was measured every day during the four weeks of treatment.
# HFpEF mice [4] = assay: Heart weight and heart histology (Masson's trichrome, WGA), cohort 2; type: in vivo, C57BL/6J mice; settings: for cardiac fibrosis / cardiomyocyte hypertrophy: HFpEF mice following Adropin treatment, histology
# Source text: as §1
# Histology. Preparation and staining of all histological samples were conducted by the Pitt Biospecimen Core at the University of Pittsburgh. All mice were sacrificed, and tissue harvested for analysis within one hour of completion of the IPGTT study. The apex of the heart and right (cohort 1) or left (cohort 2) lobe of the liver was excised from each mouse following euthanasia, fixed in 10% buffered formalin phosphate overnight at shaking incubation, washed 3 times for 5 min with 1× phosphate-buffered saline (PBS), and then transferred to 70% ethanol. Samples were then embedded in paraffin, sectioned into 4 μm slides and stained with hematoxylin and eosin (H&E), wheat germ agglutinin (WGA) or Masson's Trichrome for analysis. The NAFLD/MAFLD activity score (NAS) was obtained based on methods established by the Pathology Committee of the Non-alcoholic Steatohepatitis (NASH) Clinical Research Network. Liver pathology scoring was performed in a blinded independent fashion. NAS consisted of separate category scores which included steatosis (0-3), where 0=0-5%, 1=6-33%, 2=34-66%, and 3=67-100% of hepatocytes positive for steatosis; lobular inflammation (0-3), where 0=no foci, 1=[…], 2=2-4 foci and 3=greater than 4 foci all per 200× field; and hepatocellular ballooning (0-2), where 0=none present, 1=few and 2=many/prominent. The final NAS represents a sum of the three category scores. Histology sections were visualized with the Evos FL Auto 2 Microscope, observed changes in structure were quantified using ImageJ software and representative images are shown.
# HFpEF mice [5] = assay: Cardiac function testing by ultrasonography in HFpEF mice (Example 1); type: in vivo; settings: for diastolic function: HFpEF mice, daily Adropin treatment
# Description: as §2
# Cardiac function testing. After 2 weeks, mice were tested using ultrasonography to measure cardiac function and morphology. To determine systolic function and morphology, mice were tested using M-mode echocardiography to measure left ventricle (LV) mass, volume, wall thickness, and contraction (LV ejection fraction and fractional shortening). To determine diastolic function, mice were tested using Doppler to measure LV relaxation and filling (E/A ratio, E/e′ ratio, and isovolumetric relaxation time [IVRT]).
# [6] = 2 weeks of Adropin, vs HFpEF mice without treatment
# [7] = 2 weeks of Adropin, vs HFpEF mice without treatment, p-value <0.05
substance,measurement,setting,value
Adropin: recombinant Adropin peptide hormone encoded by the ENHO gene; full-length (SEQ ID NO: 1) or cleaved product of amino acids 34-76 (SEQ ID NO: 2) (CHSRSADVDSLSESSPNSSPGPCPEKAPPPQKPSHEGSYLLQP),CPT1b O-GlcNAcylation,CPT1b,restored; also recorded: reduced
same,cardiac contractility,"[1]; acute adropin treatment, hearts isolated from chow-fed mice [32]",increase
same,effect on cardiac contractility after exposure to a long-term HFD,[1]; ex vivo perfusion studies [33],lost
same,"expression of extracellular matrix remodeling/fibrosis (e.g. Comp, Col12a1) and natriuretic peptide (e.g. Nppa) genes",[2]; Adropin-treated vs HFpEF mice,decreased expression; also recorded: downregulated
same,"decrease in extracellular matrix remodeling transcripts (Col1a1, Col3a1, Col5a1, Mmp2)",[2]; adropin-treated vs vehicle-treated HFpEF mice,> 2 fold
same,metabolic genes,[2]; between HFpEF and Adropin groups,no widespread changes
same,Adropin function in cardiac cells,GPR19,dependent on GPR19
same,vascular stiffness,"diabetic mice; diet-induced obesity, previous study [9]",reduced
same,hepatocellular injury in NAFLD/MAFLD,"diabetic mice; exogenous adropin treatment, recent studies [34]",alleviates
same,physical activity,diabetic mice; previous studies [6-8],improved
same,hepatic steatosis and injury,"diabetic mice; previous studies [7, 34]",attenuated
same,glucose oxidation in the hearts of diabetic mice,diabetic mice; previous work from our group,restores
same,liver glucose production in diabetic mice,diabetic mice; previous work from our group,decreases
same,LCAD enzymatic activity (oxidation rates),LCAD,restored
same,lung or liver mass,HFpEF mice [3]; after 4 weeks,no differences were observed
same,average LV mass (FIG. 3A; cardiac hypertrophy),"HFpEF mice [3]; following 4 weeks of Adropin, vs HFpEF mice without treatment",lower; also recorded: reduces
same,increase in normalized heart weight to tibia length,"HFpEF mice [4]; HFpEF increase vs chow, in adropin-treated animals",absent
same,cardiac fibrosis,HFpEF mice [4],prevented the development; also recorded: reduced
same,cardiomyocyte hypertrophy,HFpEF mice [4],prevented the development; also recorded: reduced
same,cardiac fibrosis,HFpEF mice [4]; listed as adropin,reversed
same,cardiomyocyte hypertrophy,HFpEF mice [4]; listed as adropin,reversed
same,average cardiac output,HFpEF mice [5]; [6],greater
same,average ejection fraction,HFpEF mice [5]; [6],greater
same,isovolumetric relaxation time (IVRT),HFpEF mice [5]; [7],significantly lower
same,left ventricle myocardial performance index (LV MPI),HFpEF mice [5]; [7],significantly lower
same,diastolic function,HFpEF mice [5],improves
same,diastolic function,HFpEF mice [5]; listed as Recombinant Adropin,significant increase
same,diastolic function,HFpEF mice [5]; listed as recombinant Adropin,improved
same,average LV mass,"HFpEF mice [5]; following 2 weeks of Adropin, vs HFpEF mice without treatment",lower
